# Test results published in patent US6080780A, “Use of nitroflavonoids for the treatment of anxiety” (University of Strathclyde, priority 1995, dated 2000).
# Values joined by “and” are separate entries in the source; they are usually repeats but may differ in a detail not shown here. Equal entries are not always repeated.
# What was measured:
# [1] = biological target: T1, central benzodiazepine receptor (Rattus norvegicus, UniProt P18508+P62813); assay: [3H]-FNZ binding to crude synaptosomal membranes from rat CNS regions; design: washed crude synaptosomal membranes from rat cerebral cortex; from tissue; host or cells: Wistar rat cerebral cortex, cerebellum, hippocampus, striatum, spinal cord (crude synaptosomal membranes); species or system rat (Wistar); settings: Ki, [3H]-FNZ binding, rat cerebellum
# T1 sequence (P62813 28-455): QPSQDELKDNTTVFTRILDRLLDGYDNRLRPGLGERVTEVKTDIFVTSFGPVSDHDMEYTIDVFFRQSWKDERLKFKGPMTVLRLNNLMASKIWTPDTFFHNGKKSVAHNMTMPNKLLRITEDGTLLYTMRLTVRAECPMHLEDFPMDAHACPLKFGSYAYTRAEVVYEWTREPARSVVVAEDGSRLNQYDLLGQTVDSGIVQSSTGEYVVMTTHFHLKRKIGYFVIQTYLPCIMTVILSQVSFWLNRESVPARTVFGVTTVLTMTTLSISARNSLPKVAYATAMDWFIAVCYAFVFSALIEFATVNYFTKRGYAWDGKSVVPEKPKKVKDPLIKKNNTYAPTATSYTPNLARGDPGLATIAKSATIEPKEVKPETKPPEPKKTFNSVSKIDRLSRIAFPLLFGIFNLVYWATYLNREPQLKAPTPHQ
# T1 sequence (P18508 39-466): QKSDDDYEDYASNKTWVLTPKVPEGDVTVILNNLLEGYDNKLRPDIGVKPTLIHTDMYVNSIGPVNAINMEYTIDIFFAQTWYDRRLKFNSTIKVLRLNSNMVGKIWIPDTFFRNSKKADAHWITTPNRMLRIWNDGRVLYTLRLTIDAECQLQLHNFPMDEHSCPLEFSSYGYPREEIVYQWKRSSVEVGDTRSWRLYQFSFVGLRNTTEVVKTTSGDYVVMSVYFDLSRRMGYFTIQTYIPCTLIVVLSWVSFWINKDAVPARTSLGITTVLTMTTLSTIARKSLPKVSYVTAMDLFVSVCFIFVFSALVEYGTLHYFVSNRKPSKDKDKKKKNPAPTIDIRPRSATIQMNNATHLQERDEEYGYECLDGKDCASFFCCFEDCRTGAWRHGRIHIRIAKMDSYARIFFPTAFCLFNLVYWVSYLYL
# T1 sequence (P63138 26-474 partner): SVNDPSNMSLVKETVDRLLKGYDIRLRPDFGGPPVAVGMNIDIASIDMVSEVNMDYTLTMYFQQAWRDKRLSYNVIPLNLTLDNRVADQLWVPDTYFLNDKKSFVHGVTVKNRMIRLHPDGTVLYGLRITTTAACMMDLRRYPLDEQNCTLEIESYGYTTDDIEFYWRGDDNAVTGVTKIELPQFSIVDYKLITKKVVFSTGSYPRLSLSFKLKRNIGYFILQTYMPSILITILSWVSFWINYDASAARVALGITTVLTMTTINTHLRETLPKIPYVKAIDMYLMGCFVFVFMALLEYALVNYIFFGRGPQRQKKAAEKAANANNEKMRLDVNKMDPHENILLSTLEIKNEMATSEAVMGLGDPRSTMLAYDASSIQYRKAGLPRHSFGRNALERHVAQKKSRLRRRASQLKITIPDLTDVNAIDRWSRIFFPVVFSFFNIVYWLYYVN
# Protocol: (§1) Adult male Wistar rats weighing 250 g were used for biochemical experiments. Adult male Swiss male weighing 25-30 g were used for pharmacological assays except for inhibitory avoidance and tail flick tests were done in rats. Animals were housed in a controlled environment, with free access to food and water and maintained on a 12 h/12 h day/night cycle.
# Displacement curves were performed using [^3 ]-FNZ or [^3 H]-zolpidem ([^3 H]-ZOLP) as radioligands in washed crude synaptosomal membranes from rat cerebral cortex, cerebellum, hippocampus, striatum or spinal cord. Membrane preparations were carried out according to Medina et al. (1990). Briefly, brains were rapidly dissected out on ice and the different structures were homogenized in 10 volumes of 0.32 M sucrose and centrifuged at 900×g for 10 min. […]
# For [^3 H]-FNZ (84 Ci/mmol, NEN) displacement curves, different concentrations of DNF (0.3 nM to 1 μM) were added to 0.3 mg membrane protein suspended in 1 ml of 25 mM Tris HCl buffer in presence of 0.6 nM of the radioligand. […] Nonspecific binding (<5%) was determined in parallel incubations with 10 μM FNZ (Hoffmann-La Roche). […] The assays were determined by filtration under vacuum through Whatman GF/A glass fiber filters, and two washes with 3 ml each of incubation medium. Filters were dried and counted after the addition of 5 ml 2,5-diphenyl-oxazole (PPO)-xylene as scintillation fluid.
# rats = assay: Inhibitory avoidance test in rats; type: in vivo, rat
# Protocol: This test was performed according to Izquierdo et al., (1990). The training apparatus was a 50×25×25 cm acrylic box with a frontal glass panel and a floor made of parallel 1 mm caliber bronze bars spaced […] apart. A 5 cm high, 7 cm wide formica platform was placed on the loft extreme of the box. Rats were placed on the platform and their latency to step-down placing their four paws on the grid was measured. On stepping-down they received a 0.35 mA, 2 s scrambled footshock and were withdrawn from the box (training session). The test session was carried out 20 h later and was similar to the training session in all respects except that the footshock was omitted. Test step-down latency (to a ceiling of 180 s) was taken as a measure of retention of inhibitory avoidance (Izquierdo et al., 1990).
# Holeboard test in mice = type: in vivo, male Swiss mice; settings: mouse, in vivo, ip; 10 mg/kg vs anxiolytic dose; read-out: dose decreasing holeboard parameters relative to anxiolytic dose
# Protocol: as §1
# (§2) The test was performed according to Viola et al. (1994) and Wolfman et al. (1994). The number of head dips and the time spent head dipping were counted during 5 min.
# mice [2] = assay: Holeboard test in mice; type: in vivo, male Swiss mice; settings: for number of head dips and time spent head-dipping: mice, i.p.
# Protocol: as §1, §2
# [3] = biological target: T1, central benzodiazepine receptor; assay: Autoradiographic [3H]-FNZ displacement on rat brain sections; type: binding, rat (Wistar); design: Wistar rats were decapitated and brains rapidly removed; from tissue; host or cells: Wistar rat brain sagittal sections
# Protocol: Wistar rats were decapitated and brains rapidly removed. Sagittal sections (15 μm in thickness) were prepared at -20° C. using a microtome-cryostat. The tissue slices were kept frozen at -70° C. until used. For DNF displacement curves to [^3 H]--FNZ binding (0.65 nM), tissue sections were incubated for 60 min at 4° C. in 25 mM Tris HCl buffer, pH 7.4, in presence of different concentrations of DNF (1-600 nM). For non-specific binding we used 10 μM FNZ. The incubation was terminated by rinsing the sections for two min in cold buffer. Sections were briefly dipped in cold distilled water and dried rapidly under a stream of cold air (Niddam et al., 1987).
# Autoradiograms were generated by apposing the slide-mounted tissue section to tritium-sensitive film (Hyperfilm Amersham) in a light-proof X-ray cassette at 4° C. for two weeks.
# The optical densities from different brain regions were converted first to radioactive units and then to fmol/mm^2 using the [^3 H] standards on the film with the aid of a computerized image densitometric analysis system (MCID 4.02). The values were normalized and the Ki values were determined using a computerized program (Graph-Pad Prism) Bernabeu et al., 1995; Cammarota et al., 1995).
# [4] = test system: serotonin (5-HTlλ) receptors; assay: [3H]-8-OH-DPAT binding; settings: 20 μM; data not shown
# Protocol: (§3) Additional binding studies were performed as described elsewhere: [^3 ]-prazosin binding for α1 adrenergic receptors (Medina et al., 1984), [^3 H]-dihidroalprenolol binding for β adrenergic receptors (Medina et al. 1984), [^3 H]-quinuclinidyl benzylate binding for muscarinic cholinergic receptors (Jerusalinksy et al., 1983), [^3 H]-muscimol binding for GABAλ receptors (Medina et al., 1983) and [^3 H]-8-Hydroxydipropylaminotetralin ([^3 H]--OH--DPAT) binding for serotonin (5-HTlλ) receptors (Nenonene et al., 1984).
# mice [5] = assay: Elevated plus-maze test in mice (Section 1, incl. Table 1); type: in vivo, male Swiss mice; settings: mice, i.p.
# Protocol: Performance of mice on the elevated plus-maze test was used to measure anxiolytic actions in rodents, following i.p. administration of vehicle or compound (II).
# The animals used in the pharmacological test were male Swiss mice from breeding stock, weighing 28-35 g. They were placed n groups of ten with free access to water and food, and maintained on 12 h/12 h day/night cycle. In all the tests the mice were i.p. injected with VEH or a solution of the drug, 15 minutes before the assay.
# The elevated plus-maze set-up consisted of a maze of two open arms, 25×5 cm, crossed by two closed arms of the same dimensions, with free access to all arms from the crossing point. The closed arms had walls 35 cm high all around. The maze was suspended 50 cm from the room floor. Mice were placed on the central part of the cross facing an open arm. The number of entries and the time spent going into open and closed arms were counted during 5 minutes. […] The total exploratory activity (number of entries in both arms) was also determined.
# α1 adrenergic receptors = assay: [3H]-prazosin binding; settings: 20 μM; data not shown
# Protocol: as §3
smiles,measurement,setting,value
"O=c1cc(-c2cccc([N+](=O)[O-])c2)oc2ccc([N+](=O)[O-])cc12 [Compound (II), 6,3'-dinitroflavone]",Ki,[1],17 nM and 17.2 nM
same,test session performance of inhibitory avoidance,"rats; rats, i.p., 100 μg/kg, pre or posttraining",no effect
same,amnesic effects,rats; up to 10 mg/kg as worded,"did not evidence anticonvulsant, myorelaxant, amnesic"
same,selectivity ratio,Holeboard test in mice,300
same,number of head dips and time spent head-dipping,"mice [2]; 10 mg/kg, p<0.01",decreased both parameters
same,number of head dips and time spent head-dipping,mice [2]; up to 3 mg/kg,did not change the number of head dips and the time spent head-dipping
same,dose to produce similar sedative effects in comparison to DZ,"mice [2]; ratio to diazepam, higher dose",10 fold
same,Ki,[3],17.2 ± 2.3 nM
same,displacement of [3H]-8-HO-DPAT binding,[4],did not displace
same,percentage of the time spent in the open arms,mice [5]; 3 and 30 μg/kg,enhanced the percentage of the time spent in the open arms
same,total arm entries,mice [5]; doses 0 to 30 μg/kg,without affecting the total arm entries
same,percentage of entries in the open arms,"mice [5]; doses 0 to 30 μg/kg, 15 min before test",increased the percentage of entries in the open arms
same,displacement of [3H]-prazosin binding,α1 adrenergic receptors,did not displace
